Measured values as given in patent publication US12180210B2, “Compounds” (INTRA-CELLULAR THERAPIES, INC., priority 2018, dated 2024).
Where two headings read alike, the source gives them in different places.

What was measured:
[1] = test system: mice; assay: Spontaneous locomotor activity; settings: same dose levels that increased anxiolytic activity
[2] = test system: mice; assay: Hole board test, acute anxiolytic activity; settings: compound 1, 2, and 5 mg/kg, i.p., diazepam 0.5 mg/kg
[3] = test system: mice; assay: Elevated plus maze, acute anxiolytic activity; settings: compound 1, 2, and 5 mg/kg, i.p., diazepam 0.5 mg/kg
[4] = test system: mice; assay: Forced swim paradigm, acute antidepressant-like activity; format: in vivo
[5] = test system: mice; assay: Tail suspension paradigm, acute antidepressant-like activity; format: in vivo
[6] = Pharmacokinetic study in mice, plasma and brain availability; settings: single oral dose 10 mg/kg PO
Description: (§1) Mice are given a single oral dose of the compound to be tested (10 mg/kg, PO) and plasma and brain availability are measured (0.25-4h) using HPLC and LC-MS using methods analogous to those described in Zhao et al., J. Chromatogr.

[7] = test system: PDE1; assay: PDE isoform inhibition, IMAP procedure; format: biochemical
[8] = test system: PDE3; assay: PDE isoform inhibition, IMAP procedure; format: biochemical
[9] = test system: T1, PDE4; assay: PDE isoform inhibition, IMAP procedure; format: biochemical
T1 construct: PDE4 IC50

[10] = target: PDE5 (Homo sapiens, UniProt O76074); assay: PDE isoform inhibition, IMAP procedure; format: biochemical
[11] = test system: PDE6; assay: PDE isoform inhibition, IMAP procedure; format: biochemical
[12] = test system: HT-22 (hippocampal-like) cells; assay: cGMP levels in HT-22 cells stimulated by NMDA; format: cell-based
[13] = test system: HT22 cells; assay: cAMP levels in HT22 cells stimulated by isoproterenol; format: cell-based
[14] = test system: VASP (vasodilator stimulated phosphoprotein); assay: Phosphorylation of effector proteins under cGMP/cAMP control: VASP; format: cell-based
[15] = test system: CREB (cAMP response element-binding protein); assay: Phosphorylation of effector proteins under cGMP/cAMP control: CREB; format: cell-based
[16] = test system: BDNF; assay: Expression of the growth factor BDNF; format: cell-based
[17] = test system: cGMP and cAMP levels in hippocampus; assay: In vivo levels of cGMP and cAMP in mouse brain (hippocampus); settings: mice killed 30 min after injection
Description: For these studies, mice were killed 30 min after injection of each drug/dose and hippocampus isolated and used for measurement of cyclic nucleotides.

[18] = test system: mice; settings: mouse, in vivo
[19] = in vivo; settings: mouse, po, 10 mg/kg
Description: as §1

**Q.** Which Spontaneous locomotor activity [1] does the source give for `CN1C(=O)CN=C(c2ccccc2)c2cc(Cl)ccc21` [Diazepam, diazepam] here?
**A.** Its Spontaneous locomotor activity is “did not significantly affect spontaneous locomotor activity”.

**Q.** What about the “Exploration, hole board test” value [2] of the same compound?
**A.** The value was “increased explorations”.

**Q.** And the “Open arm entrances, elevated plus maze” value [3]?
**A.** Its value is “increased entrance into open arms”.

**Q.** Which “Immobility time / antidepressant-like activity, forced swim” value [4] does the source give for `CNCCCN1c2ccccc2CCc2ccccc21` [Desipramine, desipramine] here?
**A.** Its value is “induced signs of antidepressant-like activity”.

**Q.** What about the “Immobility time / antidepressant-like activity, tail suspension” value [5] of the same compound?
**A.** Its value is “induced signs of antidepressant-like activity”.

**Q.** Which “Immobility time / antidepressant-like activity, forced swim” value [4] does the source give for `COc1ccc(Cc2nn3c([C@@H](CCCc4ccccc4)[C@@H](C)O)nc(C)c3c(=O)[nH]2)cc1OC` [BAY-7550] here?
**A.** The value was “generally smaller effects that did not reach significance in all assays”.

**Q.** And the “Immobility time / antidepressant-like activity, tail suspension” value [5]?
**A.** The value was “generally smaller effects that did not reach significance in all assays”.

**Q.** What about the “Open arm entrances, elevated plus maze” value [3] of the same compound?
**A.** Its value is “small trends for these assays that did not achieve statistical significance”.

**Q.** And the “Open arm entrances, elevated plus maze” value ([3]; listed as commercial PDE2 inhibitor)?
**A.** Its value is “no statically significant effect”.

**Q.** And the Tmax [6]?
**A.** Its Tmax is 0.25.

**Q.** Which results are given for `Cc1ccc(-c2c(-c3nc(C)n4ccnc(N5CCC5)c34)cnn2C)cc1` [Compound 1, 8-(azetidin-1-yl)-3-methyl-1-(1-methyl-5-(p-tolyl)-1H-pyrazol-4-yl)imidazo[1,5-a]pyrazine]?
**A.** IC50 [7]: 8.3 µM; IC50 [8]: > 100 µM; IC50 [9]: 24.8 µM; IC50 [10]: 15.1 µM; IC50 [11]: > 100 µM; Optimal dose for stimulation of cGMP levels [12]: 10 nM; cGMP levels ([12]; NMDA (20 μM), 15 min incubation): dose-dependent increase; Optimal dose for stimulation of cAMP levels [13]: 10 nM; cAMP levels ([13]; isoproterenol (ISO, 10 nM)): dose-dependent increase; Phosphorylation of VASP [14]: concentration-dependent increase; Phosphorylation of CREB [15]: concentration-dependent increase; Expression of BDNF [16]: increased the expression; Immobility time / antidepressant-like activity, forced swim [4]: significantly reduced immobility time; Immobility time / antidepressant-like activity, tail suspension [5]: significantly reduced immobility time; cAMP levels in hippocampus [17]: significant increases; cGMP levels in hippocampus [17]: significant increases; Spontaneous locomotor activity [18]: did not significantly affect spontaneous locomotor activity; AUC(0-t) [19]: 119 ng·h/mL; Cmax [19]: 268 ng/mL; Tmax [19]: 30 min; half-life [19]: 48 min; Open arm entrances, elevated plus maze [3]: significantly increased open arm entrances
